Structures are written as SMILES. Converted amounts (≈) assume the structure as drawn.

Among the data in US5373000A, “7Beta-(thiadiazolyl)-2-iminoacetamido-3cephem compounds” (Eisai Co., Ltd., priority 1985, dated 1994) are MIC values, retold here.

Holding throughout (assay): Antibacterial activities, MIC
Assay type in all cases: cell-based

One assay concerns Kleb Pneumoniae EK-6. The following applies: read-out: MIC.
The next assay deals with Escher. coli NIHJ. The following applies: Escherichia coli, read-out: MIC.
A further assay relates to Pseud. aeruginosa EP-01. The following applies: Pseudomonas aeruginosa, EP01, Pseud. aeruginosa EP-01; read-out: MIC.
A further assay relates to Ser. marcescens ES-75. The following applies: Serratia marcescens, ES75, read-out: MIC.
The test system of the next assay is Morg. morganii EP-14. The following applies: Morganella morganii, EP14, Morg. morganii EP-14; read-out: MIC.
Another assay concerns Staph. aureus 209-P. The following applies: Staphylococcus aureus, read-out: MIC.

As a reminder, the MIC is the smallest concentration in the dilution series that meets the test's criterion for growth inhibition. On to `CO/N=C(\C(=O)N[C@@H]1C(=O)N2C(C(=O)[O-])=C(/C=C/C[N+](C)(C)Cc3csc(N)n3)CS[C@H]12)c1nsc(N)n1` [Example 25], for which the MIC in the assay on Kleb Pneumoniae EK-6 was 0.03 mg/L (≈ 0.0518 µM); with Escher. coli NIHJ, no more than 0.025 mg/L; in the assay on Pseud. aeruginosa EP-01, 3.13 mg/L (≈ 5.4 µM); with Ser. marcescens ES-75, 0.03 mg/L (≈ 0.0518 µM); in the assay with Morg. morganii EP-14, 0.05 mg/L (≈ 0.0863 µM); with Staph. aureus 209-P, 0.2 mg/L (≈ 0.345 µM).

Take `CO/N=C(\C(=O)N[C@@H]1C(=O)N2C(C(=O)[O-])=C(/C=C/C[N+](C)(C)Cc3ccoc3)CS[C@H]12)c1nsc(N)n1` [Example 26, 7β-[2-(5-Amino-1,2,4-thiadiazol-3-yl)-(Z)-2-methoxyiminoacetamido]-3-[(E)-3-[(furan-3-yl)-methyldimethylammonio]-1-propen-1-yl]-3-cephem-4-carboxylate]: the MIC in the assay on Kleb Pneumoniae EK-6 was no more than 0.025 mg/L; in the assay with Escher. coli NIHJ, no more than 0.025 mg/L; with Pseud. aeruginosa EP-01, 3.13 mg/L (≈ 5.72 µM); with Ser. marcescens ES-75, 0.05 mg/L (≈ 0.0913 µM); with Morg. morganii EP-14, no more than 0.025 mg/L; with Staph. aureus 209-P, 0.2 mg/L (≈ 0.365 µM).

On to `CO/N=C(\C(=O)N[C@@H]1C(=O)N2C(C(=O)[O-])=C(/C=C/C[N+]3(C)CCN(S(N)(=O)=O)CC3)CS[C@H]12)c1nsc(N)n1` [Example 27, 7β-[2-(5-Amino-1,2,4-thiadiazol-3-yl)-(Z)-2-methoxyiminoacetamido]-3-[(E)-3-(1-methyl-4-sulfamoyl-1-piperazinio)-1-propen-1-yl]-3-cephem-4-carboxylate], for which the MIC in the assay on Kleb Pneumoniae EK-6 was no more than 0.025 mg/L; with Escher. coli NIHJ, no more than 0.025 mg/L; in the assay with Pseud. aeruginosa EP-01, 0.8 mg/L (≈ 1.33 µM); in the assay on Ser. marcescens ES-75, 0.1 mg/L (≈ 0.166 µM); in the assay with Morg. morganii EP-14, 0.05 mg/L (≈ 0.0831 µM); in the assay on Staph. aureus 209-P it was 0.2 mg/L (≈ 0.332 µM).

Take `CO/N=C(\C(=O)N[C@@H]1C(=O)N2C(C(=O)[O-])=C(/C=C/C[N+]3(C)CCN(C=N)CC3)CS[C@H]12)c1nsc(N)n1` [Example 28, 7β-[2-(5-Amino-1,2,4-thiadiazol-3-yl)-(Z)-2-methoxyiminoacetamido]-3-[(E)-3-(1-methyl-4-formimidoyl-1-piperazinio)-1-propen-1-yl]-3-cephem-4-carboxylate]: the minimum inhibitory concentration (MIC) in the assay on Kleb Pneumoniae EK-6 worked out at 0.1 mg/L (≈ 0.182 µM); in the assay on Escher. coli NIHJ it was 0.05 mg/L (≈ 0.091 µM); in the assay on Pseud. aeruginosa EP-01, 1.56 mg/L (≈ 2.84 µM); with Ser. marcescens ES-75, 0.2 mg/L (≈ 0.364 µM); in the assay on Morg. morganii EP-14, 0.1 mg/L (≈ 0.182 µM); in the assay with Staph. aureus 209-P, 0.4 mg/L (≈ 0.728 µM).

`CO/N=C(\C(=O)N[C@@H]1C(=O)N2C(C(=O)[O-])=C(/C=C/C[N+]3(C)CCN(C(N)=O)CC3)CS[C@H]12)c1nsc(N)n1` [Example 29, 7β-[2-(5-Amino-1,2,4-thiadiazol-3-yl)-(Z)-2-methoxyiminoacetamido]-3-[(E)-3-(1-methyl-4-carbamoyl-1-piperazinio)-1-propen-1-yl]-3-cephem-4-carboxylate]: the MIC is 0.05 mg/L (≈ 0.0884 µM) with Kleb Pneumoniae EK-6; 0.05 mg/L (≈ 0.0884 µM) in the assay with Escher. coli NIHJ; 1.56 mg/L (≈ 2.76 µM) in the assay on Pseud. aeruginosa EP-01; 0.1 mg/L (≈ 0.177 µM) with Ser. marcescens ES-75; 0.05 mg/L (≈ 0.0884 µM) in the assay with Morg. morganii EP-14; 0.4 mg/L (≈ 0.707 µM) in the assay with Staph. aureus 209-P.

In the case of `CO/N=C(\C(=O)N[C@@H]1C(=O)N2C(C(=O)[O-])=C(/C=C/C[N+]3(C)CCS(=O)(=O)CC3)CS[C@H]12)c1nsc(N)n1` [Example 31, 7β-[2-(5-Amino-1,2,4-thiadiazol-3-yl)-(Z)-2-methoxyiminoacetamido]-3-[(E)-3-(1,1-dioxo-4-methyl-4-thiomorpholinio)-1-propen-1-yl]-3-cephem-4-carboxylate], the minimum inhibitory concentration (MIC) in the assay with Kleb Pneumoniae EK-6 is no more than 0.025 mg/L; in the assay with Escher. coli NIHJ, 0.05 mg/L (≈ 0.0875 µM); in the assay on Pseud. aeruginosa EP-01 it was 0.8 mg/L (≈ 1.4 µM); in the assay with Ser. marcescens ES-75, 0.1 mg/L (≈ 0.175 µM); in the assay on Morg. morganii EP-14, 0.05 mg/L (≈ 0.0875 µM); in the assay on Staph. aureus 209-P, 0.4 mg/L (≈ 0.7 µM).

On to `CO/N=C(\C(=O)N[C@@H]1C(=O)N2C(C(=O)[O-])=C(/C=C/C[N+]34CCN(CC3)CC4)CS[C@H]12)c1nsc(N)n1` [Example 32, 7β-[2-(5-Amino-1,2,4-thiadiazol-3-yl)-(Z)-2-methoxyiminoacetamido]-3-[(E)-3-(1,4-diazabicyclo[2,2,2]octan-1-io)-1-propen-1-yl]-3-cephem-4-carboxylate], for which the MIC in the assay with Kleb Pneumoniae EK-6 was no more than 0.025 mg/L; with Escher. coli NIHJ, no more than 0.025 mg/L; in the assay with Pseud. aeruginosa EP-01, 0.8 mg/L (≈ 1.5 µM); in the assay with Ser. marcescens ES-75 it was 0.1 mg/L (≈ 0.187 µM); with Morg. morganii EP-14, 0.05 mg/L (≈ 0.0935 µM); in the assay on Staph. aureus 209-P, 0.2 mg/L (≈ 0.374 µM).

Regarding `CO/N=C(\C(=O)N[C@@H]1C(=O)N2C(C(=O)[O-])=C(/C=C/C[N+]3(C)CC=C(C(N)=O)CC3)CS[C@H]12)c1nsc(N)n1` (stereo partly drawn) [Example 34, 7β-[2-(5-Amino-1,2,4-thiadiazol-3-yl)-(Z)-2-methoxyiminoacetamido]-3-[(E)-3-(1-methyl-4-carbamoyl-1,2,3,6-tetrahydropyridinio)-1-propen-1-yl]-3-cephem-4-carboxylate], the minimal inhibitory concentration (MIC) in the assay with Kleb Pneumoniae EK-6 is 0.1 mg/L (≈ 0.178 µM); in the assay on Escher. coli NIHJ it was no more than 0.025 mg/L; in the assay on Pseud. aeruginosa EP-01, 0.8 mg/L (≈ 1.42 µM); with Ser. marcescens ES-75, 0.1 mg/L (≈ 0.178 µM); in the assay with Morg. morganii EP-14, 0.05 mg/L (≈ 0.0889 µM); in the assay on Staph. aureus 209-P it was 0.2 mg/L (≈ 0.355 µM).

For the molecule `CO/N=C(\C(=O)N[C@@H]1C(=O)N2C(C(=O)[O-])=C(/C=C/C[N+](C)(C)CCC(N)=O)CS[C@H]12)c1nsc(N)n1` [Example 35, 7β-[2-(5-Amino-1,2,4-thiadiazol-3-yl)-(Z)-2-methoxyiminoacetamido]-3-[(E)-3-[N,N-dimethyl-N-(2-carbamoylethyl)ammonio]-1-propen-1-yl]-3-cephem-4-carboxylate], the minimal inhibitory concentration (MIC) with Kleb Pneumoniae EK-6 was 0.1 mg/L (≈ 0.186 µM); with Escher. coli NIHJ it was no more than 0.025 mg/L; with Pseud. aeruginosa EP-01 it was 0.8 mg/L (≈ 1.49 µM); in the assay on Ser. marcescens ES-75, 0.05 mg/L (≈ 0.0928 µM); in the assay on Morg. morganii EP-14 it was 0.05 mg/L (≈ 0.0928 µM); in the assay with Staph. aureus 209-P, 0.2 mg/L (≈ 0.371 µM).

For the molecule `CO/N=C(\C(=O)N[C@@H]1C(=O)N2C(C(=O)[O-])=C(/C=C/C[N+]34CCCN3CCC4)CS[C@H]12)c1nsc(N)n1` [Example 38, 7β-[2-(5-Amino-1,2,4-thiadiazol-3-yl)-(Z)-2-methoxyiminoacetamido]-3-[(E)-3-(1,5-diazabicyclo[3,3,0]octan-1-io)-1-propen-1-yl]-3-cephem-4-carboxylate], the MIC was no more than 0.025 mg/L in the assay on Kleb Pneumoniae EK-6; no more than 0.025 mg/L in the assay with Escher. coli NIHJ; 1.56 mg/L (≈ 2.92 µM) in the assay with Pseud. aeruginosa EP-01; 0.1 mg/L (≈ 0.187 µM) with Ser. marcescens ES-75; 0.05 mg/L (≈ 0.0935 µM) in the assay with Morg. morganii EP-14; 0.2 mg/L (≈ 0.374 µM) in the assay with Staph. aureus 209-P.

`CO/N=C(\C(=O)N[C@@H]1C(=O)N2C(C(=O)[O-])=C(/C=C/C[N+](C)(C)[C@H](C)C(N)=O)CS[C@H]12)c1nsc(N)n1` [Example 42]: the minimum inhibitory concentration (MIC) in the assay on Kleb Pneumoniae EK-6 was no more than 0.025 mg/L; in the assay on Escher. coli NIHJ it was 0.05 mg/L (≈ 0.0928 µM); in the assay on Pseud. aeruginosa EP-01 it was 0.8 mg/L (≈ 1.49 µM); in the assay on Ser. marcescens ES-75 it was 0.1 mg/L (≈ 0.186 µM); in the assay with Morg. morganii EP-14 it was 0.05 mg/L (≈ 0.0928 µM); with Staph. aureus 209-P, 0.2 mg/L (≈ 0.371 µM).

On to `CO/N=C(\C(=O)N[C@@H]1C(=O)N2C(C(=O)[O-])=C(/C=C/C[N+]3(C)CC(O)CC3CO)CS[C@H]12)c1nsc(N)n1` (stereo partly drawn) [Example 43], for which the MIC in the assay on Kleb Pneumoniae EK-6 was no more than 0.025 mg/L; with Escher. coli NIHJ it was 0.05 mg/L (≈ 0.0903 µM); with Pseud. aeruginosa EP-01 it was 1.56 mg/L (≈ 2.82 µM); with Ser. marcescens ES-75, 0.05 mg/L (≈ 0.0903 µM); with Morg. morganii EP-14 it was no more than 0.025 mg/L; with Staph. aureus 209-P, 0.4 mg/L (≈ 0.723 µM).

With `CO/N=C(\C(=O)N[C@@H]1C(=O)N2C(C(=O)[O-])=C(/C=C/C[N+]3(CCO)CCC(C(N)=O)CC3)CS[C@H]12)c1nsc(N)n1` (stereo partly drawn) [Example 44-1], the minimum inhibitory concentration (MIC) with Kleb Pneumoniae EK-6 was no more than 0.025 mg/L; in the assay with Escher. coli NIHJ, 0.05 mg/L (≈ 0.0841 µM); in the assay on Pseud. aeruginosa EP-01, 0.8 mg/L (≈ 1.35 µM); with Ser. marcescens ES-75, 0.05 mg/L (≈ 0.0841 µM); in the assay with Morg. morganii EP-14, 0.05 mg/L (≈ 0.0841 µM); with Staph. aureus 209-P it was 0.4 mg/L (≈ 0.673 µM).
